Measured values: patent EP2062578A1, “Novel use of chemical compounds for the treatment of AIDS” (priority 2007, dated 2009)
“Also recorded” adds a separate entry of the source.

Key:
[1] = tested on: Nef-mediated CD4 down-regulation; experiment: CD4 down-regulation by Nef in Nef-GFP transfected human PBMC (flow cytometry); format: cell-based; conditions: 25µM or 10µM for 3 hr
Method: (§1) Nef advances the endocytosis and degradation of […] surface proteins, including CD4 and MHC proteins (Schwartz et al., 1996, Nature Medecine 2:338-342). Consequently, some compounds of the instant invention were tested for their ability to prevent their degradations by interacting with Nef. Human peripheral blood mononuclear cells (PBMC) from healthy volunteers were purified by Ficoll gradient centrifugation ( Lymphoprep™, Axis-shield). Washed, isolated PBMC were transiently transfected using the nucleofection technology (human T cell Nucleofector™ kit, 5.10^6 cells, 5µg plasmid DNA Nef-GFP or GFP (Nucleofactor Program V-024™, Amaxa Biosystems)). The same Nef sequence as described above in example 1 was cloned in pEGFP-N3 (Clonetech). […]
(§2) At 45 hr post transfection cells were treated with 25 µM of Compound X or 0.5% DMSO (control) for 3 hrs. Cells were then incubated with human anti-CD4+-PE or human anti-HLA-ABC (MHC-I) and analyzed by flow cytometry. Flow Cytometric Analysis were performed as follows: Cells were washed and resuspended in fluorescence-activated cell sorter (FACS) medium (PBS 2% FCS 0.02% NaN3, pH 7.2). […] Cells were washed and analyzed on FACS scan using Flow Jo software™ (Beckman Coulter for 20100326 and BD Pharmingen for 551497).
(§3) Viable CD4+ T cells were analyzed for GFP and anti-CD4+ (panel A, figure 2) or GFP and anti-HLA-ABC (panel B, figure 2) staining. […]

[2] = tested on: Nef-mediated MHC-I down-regulation; experiment: MHC-I down-regulation by Nef in Nef-GFP transfected human PBMC (flow cytometry); format: cell-based; conditions: 25µM or 10µM for 3 hr, compared with 5µM LY294002 as control
Method: as §1, §2, §3

[3] = target: T1, Nef57-205 (Human immunodeficiency virus type 1 group M subtype B, UniProt P03406); experiment: Isothermal Titration Calorimetry (ITC) binding to Nef57-205; parameters: species or system HIV-1; conditions: for ΔH: enthalpy variation; for ΔH / TΔS / ΔG / N: ITC at 25 °C; for TΔS: entropy variation; for ΔG: free enthalpy variation; for N: stoichiometry, Compound X in 20 mM Hepes pH 7.0, Compound Y in 20 mM Na-phosphate pH 8.0, 100 mM NaCl, 5% DMSO
T1 construct: Purified Nef57-205, as described in Arold et al, Structure 1997 5(10) p 1361); made in house
Method: Isothermal titration calorimetry (ITC) is used to investigate in vitro the binding affinity and thermodynamic parameters of the inhibitory molecules.
Purified Nef57-205, as described in Arold et al, Structure 1997 5(10) p 1361) was extensively dialyzed in degassed ITC buffer (20 mM Hepes pH 7.0, 100 mM NaCl, 5% DMSO), except for binding experiments with Compound Y, where 20 mM Na-phosphate pH 8.0, 100 mM NaCl, 5% DMSO was used as buffer. Synthetic inhibitors were first dissolved at 10 mM in 100% DMSO, and then diluted to 300 - 400 µM in ITC buffer with DMSO concentration adjusted to 5%. Inhibitors were injected from the 300 µL syringe into the 1.4 mL sample cell containing 15-25 µM Nef57-205. ITC titrations were performed at 25 °C, using 10 - 15 µl injections every 300 secondes. All inhibitors were also titrated into ITC buffer alone, and the resulting heat of dilution was subtracted from the experimental curves. ITC was performed with a VP ITC MicroCalorimeter from MicroCal Inc., and data were fitted with Microcal Origin™ software. The results are summarized in Table I and illustrated in Figure 1.

## CC(C)(C)c1ccc(OC(=O)Nc2ccc(O)c(C(=O)O)c2)cc1 [Compound X, 2-hydroxy-5-[(4-tert-butylphenoxy)carbonylamino]benzoic acid]
[1]
  Nef-mediated CD4 down-regulation: not
[2]
  Nef-mediated MHC-I down-regulation: reduce in a dose-dependent manner; also recorded: partially blocked
[3]
  Kd: 1800 ± 850 nM
  ΔH: -0.956 ± 0.096 kcal/mol
  TΔS: 6.88 kcal/mol
  ΔG: -7.84 kcal/mol
  N: 0.83 ± 0.06

## CC(C)(C)c1ccc(OCC(=O)Nc2cccc(C(=O)O)c2)cc1 [Compound Y, 3-{[(4-tert-butylphenoxy)acetyl]amino}benzoic acid]
[3]
  Kd: 980 ± 300 nM
  ΔH: -0.765 ± 0.0478 kcal/mol
  TΔS: 7.41 kcal/mol
  ΔG: -8.17 kcal/mol
  N: 1.14 ± 0.1
